For one assay, the system named is EBC-1 cells. The assay is described as follows: EBC-1 cell proliferation, CellTiter-Glo Luminescent Cell Viability Assay. It counts as cell-based. As to conditions: Homo sapiens, 72 h incubation, read-out: IC50 (nM) against EBC-1 cells. On the procedure:
Test Example 3: Inhibitory Activity of Compounds disclosed herein against EBC-1 Cells
Test method: the inhibitory activity of the compounds against EBC-1 cell proliferation was evaluated using CellTiter-Glo® Luminescent Cell Viability Assay Kit (Promega).
Test procedures: when thawing EBC-1 cells, the cell cryopreservation tube was shaken rapidly in a water bath at 37° C. to thaw the cells in 1 min. The cell suspension after thawing was mixed with RPMI1640 culture medium containing 10% FBS and centrifuged for 5 min at 1000 rpm, and the supernatant was discarded. The cell pellet was suspended in 5 mL of complete culture medium. The suspension was placed in a cell culture flask with a bottom area of 25 cm^2, and cultured in a cell incubator at 37° C./95% humidity/5% CO2. Cell passage was performed when cell confluence reached about 80%. When the cells were passaged, the original cell suspension was directly made uniform by pipetting. 1/6 of the cell suspension was kept, added with 5 mL of new complete culture medium and then made uniform by pipetting. The cell culture flask was then placed in a cell incubator for further culturing. Cell plating was performed when the cell confluence reached about 80% again. With reference to the method for cell passage, 1/6 cell suspension was kept for further culturing when the cells were plated, and the remaining 5/6 of cell suspension was placed in a 15 mL centrifuge tube. Cell viability was detected by trypan blue exclusion using an IC1000 cell counter (Countstar) to ensure that cell viability was above 90%. Cell suspension at a density of 3.33×10^4 viable cells/mL was prepared using complete culture medium, and 90 μL of the cell suspension was added into 96-well cell culture plates, so that the cell density in the cell culture plates (day 0 plate and test compound plate) was 3000 viable cells/well. A control group that contains no cell or compound but only complete culture medium and a control group that contains no compound but cells were set. The cell plates were incubated overnight in a cell incubator. […] 10 μL of the above solution was added into a corresponding cell culture plate to ensure that the initial concentration of the compound was 10 μM, the dilution factor of adjacent concentration was 3.16, and the DMSO content in the cell culture plate was 0.1%. The cell plates were then incubated in the cell incubator for 72 h. During detection, CellTiter-Glo reagent (namely CellTiter-Glo® […] cell viability test reagent, Promega, Cat. No. G7572, Lot. No. 0000310975) was melted, and the cell plate was equilibrated at room temperature for 30 min. The cell plate was added with the CellTiter-Glo reagent at 100 μL per well, and then shaken on a QB-9001 microporous quick shaker (Kylin-Bell) for 5 min to fully lyse the cells. The cell plate was left to stand at room temperature for 20 min to stabilize luminescence signals, and the luminescence value of each well was scanned by a Spectramax M3 multi-functional microplate reader (Molecular Devices) at full wavelength.
Test samples: example compounds of the present invention and cabozantinib (positive control compound).
Data analysis: cell viability was calculated for compounds at various concentrations using the following formula:
Cell viability(%)=(Lumtest compound−Lumculture solution control)/(Lumcell control−Lumculture solution control)×100%,
where Lum refers to the luminescence value of each well of the test compound plate read by the multi-functional microplate reader.
The data were analyzed using GraphPad Prism 7.0 software, fitted with nonlinear S-curve regression to give dose-response curves, and IC50 values were calculated therefrom.

The target of another assay is T1, kinase Axl (Homo sapiens, UniProt P30530).
T1 construct: purchased Carna 08-107
T1 sequence (P30530 473-894 limits assumed): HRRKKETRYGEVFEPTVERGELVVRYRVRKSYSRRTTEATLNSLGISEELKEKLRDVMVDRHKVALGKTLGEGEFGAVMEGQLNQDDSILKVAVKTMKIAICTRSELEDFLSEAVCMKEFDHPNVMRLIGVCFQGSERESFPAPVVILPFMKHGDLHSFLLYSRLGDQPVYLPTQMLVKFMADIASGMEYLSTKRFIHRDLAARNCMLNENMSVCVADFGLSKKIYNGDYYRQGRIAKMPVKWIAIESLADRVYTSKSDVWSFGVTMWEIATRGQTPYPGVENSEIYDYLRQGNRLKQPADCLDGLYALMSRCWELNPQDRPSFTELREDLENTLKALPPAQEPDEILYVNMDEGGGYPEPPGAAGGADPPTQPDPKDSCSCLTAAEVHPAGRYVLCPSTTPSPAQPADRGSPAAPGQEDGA
The assay is described as follows: Mobility shift assay, inhibitory activity against kinase Axl. It counts as biochemical. As to conditions: ATP at Km (81 μM), average of two independent experiments. On the procedure:
(§1) In this test, mobility shift assay was used to test the inhibitory activity of compounds when ATP concentrations correspond to the Km of the kinases.
(§2) The concentration of test compound was 10-fold diluted from an initial concentration of 10 μM. The test result (IC50) was the average of two independent experiments.
(§3) For example, a compound at an initial concentration of 10 μM was adjusted to 500 μM with 100% DMSO, then serially diluted for 10 concentrations, and then subjected to 10-fold dilution with the buffer to prepare a diluted compound intermediate containing 10% DMSO, 5 μL of which was transferred to the 384-well plate.
(§4) 10 μL of the two enzyme solutions each was added to the 384-well plate and co-incubated with the compound for 10-15 min at room temperature.
(§5) 10 μL of the diluted substrate was added to the 384-well plate to initiate the reaction, which lasts for 1 h at 28° C.
(§6) 5) The conversion rate was read by Caliper Reader (Perkin Elmer) and the inhibition rate was calculated as the average of two tests.
(§7) 6) IC50 values were fitted with XL-fit software.

The target of another assay is T2, kinase c-MET (Homo sapiens, UniProt P08581).
T2 construct: purchased Carna 08-151
The assay is described as follows: Mobility shift assay, inhibitory activity against kinase c-MET. It counts as biochemical. To be noted: ATP at Km (35 μM), average of two independent experiments. On the procedure: as §1, §2, §3, §4, §5, §6, §7

These results are taken from US20210355107A1, “MULTI-SUBSTITUTED PYRIDONE DERIVATIVES AND MEDICAL USE THEREOF” (Beijing Yuezhikangtai Biomedicines Co., Ltd., priority 2018, published 2021).

T2 sequence (P08581 956-1390 limits assumed): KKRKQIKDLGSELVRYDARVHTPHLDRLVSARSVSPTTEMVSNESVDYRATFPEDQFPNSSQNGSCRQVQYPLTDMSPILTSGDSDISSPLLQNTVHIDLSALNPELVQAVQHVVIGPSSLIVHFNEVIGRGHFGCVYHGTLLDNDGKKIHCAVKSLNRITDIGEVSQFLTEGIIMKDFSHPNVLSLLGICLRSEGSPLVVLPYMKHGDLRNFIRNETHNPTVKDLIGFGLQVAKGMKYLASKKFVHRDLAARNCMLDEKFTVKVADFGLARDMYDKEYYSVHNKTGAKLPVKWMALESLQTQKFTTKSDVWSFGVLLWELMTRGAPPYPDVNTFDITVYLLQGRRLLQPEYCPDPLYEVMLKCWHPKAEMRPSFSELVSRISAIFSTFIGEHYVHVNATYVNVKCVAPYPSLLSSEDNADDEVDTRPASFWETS

Broadly, the IC50 is the concentration that gives 50% inhibition. Take `COc1cc2nccc(Oc3ccc(NC(=O)C4(C(=O)Nc5ccc(F)cc5)CC4)cc3)c2cc1OC` [Cabozantinib, cabozantinib, reference compound]: in the assay with EBC-1 cells, the IC50 came to 37 nM.

For `CC(C)n1cc(C(=O)Nc2ccc(-c3cc(-c4cnn(C5CCOCC5)c4)cnc3N)c(F)c2)c(=O)c(-c2ccc(F)cc2)c1C#N` [Example 5, N-(4-(2-amino-5-(1-(tetrahydro-2H-pyran-4-yl)-1H-pyrazol-4-yl)-pyridin-3-yl)-3-fluorophenyl)-6-cyano-5-(4-fluorophenyl)-1-isopropyl-4-oxo-1,4-dihydro-pyridine-3-carboxamide], the IC50 was 2.6 nM on kinase Axl and 38 nM on kinase c-MET.

In the case of `N#Cc1c(-c2ccc(F)cc2)c(=O)c(C(=O)Nc2ccc(-c3cc(-c4cnn(C5CCNCC5)c4)cnc3N)c(F)c2)cn1C1CCC1` [Example 8, N-(4-(2-amino-5-(1-(piperidin-4-yl)-1H-pyrazol-4-yl)pyridin-3-yl)-3-fluorophenyl)-6-cyano-5-(4-fluorophenyl)-1-cyclobutyl-4-oxo-1,4-dihydropyridine-3-carboxamide], the IC50 was 1.1 nM on kinase Axl and 17 nM at kinase c-MET.

For the compound `N#Cc1c(-c2ccc(F)cc2)c(=O)c(C(=O)Nc2ccc(-c3cc(-c4cnn(C5CCNCC5)c4)cnc3N)c(F)c2)cn1C1CC1` [Example 11, N-(4-(2-amino-5-(1-(piperidin-4-yl)-1H-pyrazol-4-yl)pyridin-3-yl)-3-fluorophenyl)-6-cyano-5-(4-fluorophenyl)-1-cyclopropyl-4-oxo-1,4-dihydropyridine-3-carboxamide], the IC50 is 91 nM in the assay with EBC-1 cells, 0.95 nM on kinase Axl and 10 nM at kinase c-MET.

`N#Cc1c(C2CC2)cc(C(=O)Nc2ccc(-c3cc(-c4cnn(C5CCNCC5)c4)cnc3N)c(F)c2)c(=O)n1-c1ccc(F)cc1` [Example 12, N-(4-(2-amino-5-(1-(piperidin-4-yl)-1H-pyrazol-4-yl)pyridin-3-yl)-3-fluorophenyl)-6-cyano-5-cyclopropyl-1-(4-fluorophenyl)-2-oxo-1,2-dihydropyridine-3-carboxamide]: the IC50 with EBC-1 cells was 98 nM; at kinase Axl it was 2.1 nM; at kinase c-MET, 23 nM.

As for `CCn1cc(-c2cnc(N)c(-c3ccc(NC(=O)c4cc(C5CC5)c(C#N)n(-c5ccc(F)cc5)c4=O)cc3F)c2)cn1` [Example 14, N-(4-(2-amino-5-(1-ethyl-1H-pyrazol-4-yl)pyridin-3-yl)-3-fluorophenyl)-6-cyano-5-cyclopropyl-1-(4-fluorophenyl)-2-oxo-1,2-dihydropyridine-3-carboxamide], the IC50 on kinase Axl was determined as 12 nM; on kinase c-MET, 82 nM.

With `Cn1cc(-c2cnc(N)c(-c3ccc(NC(=O)c4cc(C5CC5)c(C#N)n(-c5ccc(F)cc5)c4=O)cc3F)c2)cn1` [Example 15, N-(4-(2-amino-5-(1-methyl-1H-pyrazol-4-yl)pyridin-3-yl)-3-fluorophenyl)-6-cyano-5-cyclopropyl-1-(4-fluorophenyl)-2-oxo-1,2-dihydropyridine-3-carboxamide], the values for the IC50 in the assay on EBC-1 cells, on kinase Axl and at kinase c-MET were 190 nM, 6.6 nM and 20 nM, respectively.

In the case of `N#Cc1c(C2CC2)cc(C(=O)Nc2ccc(-c3cc(-c4cnn(C5CCOCC5)c4)cnc3N)c(F)c2)c(=O)n1-c1ccc(F)cc1` [Example 16, N-(4-(2-amino-5-(1-(tetrahydro-2H-pyran-4-yl)-1H-pyrazol-4-yl)pyridin-3-yl)-3-fluorophenyl)-6-cyano-5-cyclopropyl-1-(4-fluorophenyl)-2-oxo-1,2-dihydro-pyridine-3-carboxamide], the IC50 at kinase Axl stood at 9.8 nM; at kinase c-MET it was 143 nM.

As for `C=C(C)c1cc(C(=O)Nc2ccc(-c3cc(-c4cnn(C5CCNCC5)c4)cnc3N)c(F)c2)c(=O)n(-c2ccc(F)cc2)c1C#N` [Example 17, N-(4-(2-amino-5-(1-(piperidin-4-yl)-1H-pyrazol-4-yl)pyridin-3-yl)-3-fluorophenyl)-6-cyano-1-(4-fluorophenyl)-2-oxo-5-(prop-1-en-2-yl)-1,2-dihydropyridine-3-carboxamide], the values for the IC50 on kinase Axl and on kinase c-MET were 1.8 nM and 23 nM, respectively.

Turning to `COc1cc2nccc(Oc3ccc(NC(=O)c4cn(C5CC5)c(C#N)c(-c5ccc(F)cc5)c4=O)cc3F)c2cc1OC` [Example 22, 6-cyano-N-(4-((6,7-dimethoxyquinolin-4-yl)oxy)-3-fluoro-phenyl)-5-(4-fluorophenyl)-1-cyclopropyl-4-oxo-1,4-dihydropyridine-3-carboxamide], the IC50 in the assay on EBC-1 cells was 84 nM; at kinase Axl, 5.9 nM.

In the case of `COc1cc2nccc(Oc3ccc(NC(=O)c4cn(C5CCC5)c(C#N)c(-c5ccc(F)cc5)c4=O)cc3F)c2cc1OC` [Example 23, 6-cyano-N-(4-((6,7-dimethoxyquinolin-4-yl)oxy)-3-fluoro-phenyl)-5-(4-fluorophenyl)-1-cyclobutyl-4-oxo-1,4-dihydropyridine-3-carboxamide], the 50% inhibitory concentration (IC50) in the assay with EBC-1 cells was 74 nM.

As for `COc1cc2nccc(Oc3ccc(NC(=O)c4cn(C(C)C)c(C#N)c(-c5ccc(F)cc5)c4=O)cc3F)c2cc1C#N` [Example 25, 6-cyano-N-(4-((6-cyano-7-methoxyquinolin-4-yl)oxy)-3-fluoro-phenyl)-5-(4-fluorophenyl)-1-isopropyl-4-oxo-1,4-dihydropyridine-3-carboxamide], the IC50 in the assay with EBC-1 cells is 115 nM.

As for `COCc1c(C)cc(C(=O)Nc2ccc(Oc3ccnc4cc(OC)c(OC)cc34)c(F)c2)c(=O)n1-c1ccc(F)cc1` [Example 28, 5-methyl-N-(4-((6,7-dimethoxyquinolin-4-yl)oxy)-3-fluoro-phenyl)-1-(4-fluorophenyl)-6-(methoxymethyl)-2-oxo-1,2-dihydropyridine-3-carboxamide], the IC50 turned out to be 1 nM on kinase Axl and 21 nM on kinase c-MET.

With `COc1cc2nccc(Oc3ccc(NC(=O)c4cc(C)c(C#N)n(-c5ccc(F)cc5)c4=O)cc3F)c2cc1OC` [Example 29A, 6-cyano-N-(4-((6,7-dimethoxyquinolin-4-yl)oxy)-3-fluoro-phenyl)-1-(4-fluorophenyl)-5-methyl-2-oxo-1,2-dihydropyridine-3-carboxamide], the IC50 turned out to be 82.7 nM with EBC-1 cells and 3.1 nM on kinase Axl.

`COc1cc2nccc(Oc3ccc(NC(=O)c4cc(Br)c(O)n(-c5ccc(F)cc5)c4=O)cc3F)c2cc1OC` [Example 29B, 5-bromo-N-(4-((6,7-dimethoxyquinolin-4-yl)oxy)-3-fluorophenyl)-1-(4-fluorophenyl)-6-hydroxy-2-oxo-1,2-dihydropyridine-3-carboxamide]: the IC50 was 3.9 nM on kinase Axl and 30 nM on kinase c-MET.
